pIC50: −log10 of the molar value.

This assay addresses SARS-CoV-2 PLpro (Severe acute respiratory syndrome coronavirus 2 (2019-nCoV) (SARS-CoV-2), UniProt P0DTD1). The experiment in a line: PLpro enzymatic inhibition assay (IC50 value determination). Type of assay: biochemical. As to conditions: 60 min preincubation for covalent inhibitors, 10 min for non-covalent, read-out: Inhibition of SARS-CoV-2 PLpro IC50 range.

The term pIC50 denotes the negative decadic logarithm of the IC50, by convention in mol/L. As for `C#CCNC(=O)CNC(=O)CN(C1CCN(C(C)c2cccc3ccccc23)CC1)S(=O)(=O)N1CCN(CC(=O)OCC)CC1` (centres unmarked) [Compound 115, ethyl 2-(4-(N-(1-(1-(naphthalen-1-yl)ethyl)piperidin-4-yl)-N-(2-oxo-2-((2-oxo-2-(prop-2-yn-1-ylamino)ethyl)amino)ethyl)sulfamoyl)piperazin-1-yl)acetate], the pIC50 is more than 7.00.

With `C#CCNC(=O)CNC(=O)CN(C1CCN(C(C)c2cccc3ccccc23)CC1)S(=O)(=O)N1CCN(CC(=O)O)CC1` (centres unmarked) [Compound 117], the pIC50 was 5.00 to 6.00.

As for `C#CCNC(=O)CNC(=O)CN(C(=O)CCC(=O)O)C1CCN(C(C)c2cccc3ccccc23)CC1` (centres unmarked) [Compound 118, 4-((1-(1-(naphthalen-1-yl)ethyl)piperidin-4-yl)(2-oxo-2-((2-oxo-2-(prop-2-yn-1-ylamino)ethyl)amino)ethyl)amino)-4-oxobutanoic acid], the pIC50 is 5.00 to 6.00.

For the molecule `C#CCNC(=O)CNC(=O)CN(C1CCN(c2nc3ccccc3s2)CC1)S(C)(=O)=O` [Compound 119, 2-(N-(1-(benzo[d]thiazol-2-yl)piperidin-4-yl)methylsulfonamido)-N-(2-oxo-2-(prop-2-yn-1-ylamino)ethyl)acetamide], the pIC50 is 6.00 to 7.00.

With `C#CCNC(=O)CNC(=O)CN(C1CCN(C(C)c2ccc(Cl)cc2Cl)CC1)S(C)(=O)=O` (centres unmarked) [Compound 120, 2-(N-(1-(1-(2,4-dichlorophenyl)ethyl)piperidin-4-yl)methylsulfonamido)-N-(2-oxo-2-(prop-2-yn-1-ylamino)ethyl)acetamide], the pIC50 is 6.00 to 7.00.

Take `C#CCNC(=O)CNC(=O)CN(C1CCN(C(C)c2ccc(OC)c(Cl)c2)CC1)S(C)(=O)=O` (centres unmarked) [Compound 121, 2-(N-(1-(1-(3-chloro-4-methoxyphenyl)ethyl)piperidin-4-yl)methylsulfonamido)-N-(2-oxo-2-(prop-2-yn-1-ylamino)ethyl)acetamide]: the pIC50 is more than 7.00.

Regarding `C#CCNC(=O)CNC(=O)CN(C1CCN(C(C)c2cccc(OC)c2Cl)CC1)S(C)(=O)=O` (centres unmarked) [Compound 123, 2-(N-(1-(1-(2-chloro-3-methoxyphenyl)ethyl)piperidin-4-yl)methylsulfonamido)-N-(2-oxo-2-(prop-2-yn-1-ylamino)ethyl)acetamide], the pIC50 was 6.00 to 7.00.

Turning to `C#CCNC(=O)CNC(=O)CN(C1CCN(C(C)c2c(Cl)cccc2Cl)CC1)S(C)(=O)=O` (centres unmarked) [Compound 125, 2-(N-(1-(1-(2,6-dichlorophenyl)ethyl)piperidin-4-yl)methylsulfonamido)-N-(2-oxo-2-(prop-2-yn-1-ylamino)ethyl)acetamide], the pIC50 was 6.00 to 7.00.

For the molecule `C#CCNC(=O)CNC(=O)CN(C1CCN(c2nc3cc(Cl)ccc3s2)CC1)S(C)(=O)=O` [Compound 126, 2-(N-(1-(5-chlorobenzo[d]thiazol-2-yl)piperidin-4-yl)methylsulfonamido)-N-(2-oxo-2-(prop-2-yn-1-ylamino)ethyl)acetamide], the pIC50 was 5.00 to 6.00.

Consider `C#CCCNC(=O)CNC(=O)CN(C1CCN([C@H](C)c2cccc3ccccc23)CC1)S(C)(=O)=O` [Compound 127, (R)—N-(but-3-yn-1-yl)-2-(2-(N-(1-(1-(naphthalen-1-yl)ethyl)piperidin-4-yl)methylsulfonamido)acetamido)acetamide], for which the negative-log IC50 (pIC50) was 6.00 to 7.00.

Turning to `C#CC(C)NC(=O)CNC(=O)CN(C1CCN([C@H](C)c2cccc3ccccc23)CC1)S(C)(=O)=O` (stereo partly drawn) [Compound 128, N-(but-3-yn-2-yl)-2-(2-(N-(1-((R)-1-(naphthalen-1-yl)ethyl)piperidin-4-yl)methylsulfonamido)acetamido)acetamide], the pIC50 is 5.00 to 6.00.

In the case of `C#CCNC(=O)CNC(=O)CN(C1CCN(C(C)c2ccccc2F)CC1)S(C)(=O)=O` (centres unmarked) [Compound 129, 2-(N-(1-(1-(2-fluorophenyl)ethyl)piperidin-4-yl)methylsulfonamido)-N-(2-oxo-2-(prop-2-yn-1-ylamino)ethyl)acetamide], the negative logarithm of the IC50 (pIC50) is 6.00 to 7.00.

For the molecule `C#CCNC(=O)CNC(=O)CN(C1CCN(C(C)c2ccccc2OC)CC1)S(C)(=O)=O` (centres unmarked) [Compound 130, 2-(N-(1-(1-(2-methoxyphenyl)ethyl)piperidin-4-yl)methylsulfonamido)-N-(2-oxo-2-(prop-2-yn-1-ylamino)ethyl)acetamide], the pIC50 is more than 7.00.

Take `C#CCNC(=O)CNC(=O)CN(C1CCN(C(C)c2cccc3ccccc23)CC1)S(=O)(=O)CCC(=O)OC` (centres unmarked) [Compound 131, methyl 3-(N-(1-(1-(naphthalen-1-yl)ethyl)piperidin-4-yl)-N-(2-oxo-2-((2-oxo-2-(prop-2-yn-1-ylamino)ethyl)amino)ethyl)sulfamoyl)propanoate]: the pIC50 is more than 7.00.

For `CC(c1cccc2ccccc12)N1CCC(N(CC(=O)NCC(=O)NCC(=O)CF)S(C)(=O)=O)CC1` (centres unmarked) [Compound 132, N-(3-fluoro-2-oxopropyl)-2-(2-(N-(1-(1-(naphthalen-1-yl)ethyl)piperidin-4-yl)methylsulfonamido)acetamido)acetamide], the pIC50 is more than 7.00.

Turning to `C#CCNC(=O)CNC(=O)CN(C1CCN([C@H](C)c2cccc3ccccc23)CC1)S(=O)(=O)CCC(N)=O` [Compound 133, (R)-3-(N-(1-(1-(naphthalen-1-yl)ethyl)piperidin-4-yl)-N-(2-oxo-2-((2-oxo-2-(prop-2-yn-1-ylamino)ethyl)amino)ethyl)sulfamoyl)propanamide], the pIC50 is more than 7.00.

`C#CCNC(=O)CNC(=O)CN(C1CCN([C@H](C)c2cccc3ccccc23)CC1)S(=O)(=O)N1CCC(C(=O)OC)C1` (stereo partly drawn) [Compound 134, methyl 1-(N-(1-((R)-1-(naphthalen-1-yl)ethyl)piperidin-4-yl)-N-(2-oxo-2-((2-oxo-2-(prop-2-yn-1-ylamino)ethyl)amino)ethyl)sulfamoyl)pyrrolidine-3-carboxylate]: the pIC50 was more than 7.00.

Turning to `C#CCNC(=O)CNC(=O)CN(C1CCN([C@H](C)c2cccc3ccccc23)CC1)S(=O)(=O)CCCO` [Compound 135, (R)-2-((3-hydroxy-N-(1-(1-(naphthalen-1-yl)ethyl)piperidin-4-yl)propyl)sulfonamido)-N-(2-oxo-2-(prop-2-yn-1-ylamino)ethyl)acetamide], the pIC50 was more than 7.00.

Turning to `COC(=O)/C=C/CNC(=O)c1nnc(CNC(=O)CN(C2CCN(C(C)c3cccc4ccccc34)CC2)S(C)(=O)=O)o1` (centres unmarked) [Compound 136, methyl (E)-4-(5-((2-(N-(1-(1-(naphthalen-1-yl)ethyl)piperidin-4-yl)methylsulfonamido)acetamido)methyl)-1,3,4-oxadiazole-2-carboxamido)but-2-enoate], the pIC50 is 6.00 to 7.00.

`C#CCNC(=O)CNC(=O)CN(C1CCN([C@H](C)c2cccc3ccccc23)CC1)S(=O)(=O)N1CCC(C(N)=O)C1` (stereo partly drawn) [Compound 137, 1-(N-(1-((R)-1-(naphthalen-1-yl)ethyl)piperidin-4-yl)-N-(2-oxo-2-((2-oxo-2-(prop-2-yn-1-ylamino)ethyl)amino)ethyl)sulfamoyl)pyrrolidine-3-carboxamide]: the pIC50 is more than 7.00.

On to `C#CCNC(=O)CNC(=O)CN(C1CCN(C(C)c2ccc(OC)cc2Cl)CC1)S(C)(=O)=O` (centres unmarked) [Compound 139, 2-(N-(1-(1-(2-chloro-4-methoxyphenyl)ethyl)piperidin-4-yl)methylsulfonamido)-N-(2-oxo-2-(prop-2-yn-1-ylamino)ethyl)acetamide], for which the pIC50 is 6.00 to 7.00.

Consider `C#CCNC(=O)CNC(=O)CN(C1CCN(C(C)c2cc(Cl)ccc2Cl)CC1)S(C)(=O)=O` (centres unmarked) [Compound 140, 2-(N-(1-(1-(2,5-dichlorophenyl)ethyl)piperidin-4-yl)methylsulfonamido)-N-(2-oxo-2-(prop-2-yn-1-ylamino)ethyl)acetamide], for which the pIC50 is 6.00 to 7.00.

On to `C#CCNC(=O)CNC(=O)CN(C1CCN(C(C)c2cccc(-c3cccs3)c2)CC1)S(C)(=O)=O` (centres unmarked) [Compound 141, N-(2-oxo-2-(prop-2-yn-1-ylamino)ethyl)-2-(N-(1-(1-(3-(thiophen-2-yl)phenyl)ethyl)piperidin-4-yl)methylsulfonamido)acetamide], for which the pIC50 was 6.00 to 7.00.

`C#CCNC(=O)CNC(=O)CN(C1CCN(C(C)c2cccc(C)c2Cl)CC1)S(C)(=O)=O` (centres unmarked) [Compound 142, 2-(N-(1-(1-(2-chloro-3-methylphenyl)ethyl)piperidin-4-yl)methylsulfonamido)-N-(2-oxo-2-(prop-2-yn-1-ylamino)ethyl)acetamide]: the pIC50 is 6.00 to 7.00.

Take `C#CCNC(=O)CNC(=O)CN(C1CCN(C(CO)c2cccc3ccccc23)CC1)S(C)(=O)=O` (centres unmarked) [Compound 143, 2-(N-(1-(2-hydroxy-1-(naphthalen-1-yl)ethyl)piperidin-4-yl)methylsulfonamido)-N-(2-oxo-2-(prop-2-yn-1-ylamino)ethyl)acetamide]: the pIC50 was 5.00 to 6.00.

For `C#CCNC(=O)CNC(=O)CN(C1CCN(C(CF)c2cccc3ccccc23)CC1)S(C)(=O)=O` (centres unmarked) [Compound 144, 2-(N-(1-(2-fluoro-1-(naphthalen-1-yl)ethyl)piperidin-4-yl)methylsulfonamido)-N-(2-oxo-2-(prop-2-yn-1-ylamino)ethyl)acetamide], the pIC50 is 5.00 to 6.00.

As for `C#CCNC(=O)CNC(=O)CN(C1CCN([C@H](C)c2cccc3ccccc23)CC1)S(N)(=O)=O` [Compound 145, (R)-2-((1-(1-(naphthalen-1-yl)ethyl)piperidin-4-yl)(sulfamoyl)amino)-N-(2-oxo-2-(prop-2-yn-1-ylamino)ethyl)acetamide 2,2,2-trifluoroacetate], the pIC50 is more than 7.00.

As to `C#CC(=O)NNC(=O)CN(C1CCN([C@H](C)c2cccc3ccccc23)CC1)S(C)(=O)=O` [Compound 147, (R)—N-(1-(1-(naphthalen-1-yl)ethyl)piperidin-4-yl)-N-(2-oxo-2-(2-propioloylhydrazineyl)ethyl)methanesulfonamide], the pIC50 was more than 7.00.

For `C#CCNC(=O)CNC(=O)CN(C1CCN(C(c2cccc3ccccc23)C(F)F)CC1)S(C)(=O)=O` (centres unmarked) [Compound 148, 2-(N-(1-(2,2-difluoro-1-(naphthalen-1-yl)ethyl)piperidin-4-yl)methylsulfonamido)-N-(2-oxo-2-(prop-2-yn-1-ylamino)ethyl)acetamide], the pIC50 is 5.00 to 6.00.

The record behind these values is US20250059159A1, “PLPRO INHIBITORS” (SHANGHAI SYNERGY PHARMACEUTICAL SCIENCES CO., LTD., priority 2021, published 2025).
